Source: US8748569B2, “Peptide amphiphiles and methods to electrostatically control bioactivity of the ikvav peptide epitope” (Northwestern University, priority 2011, dated 2014)
Peptide text beside a SMILES is read from it. * marks the point of attachment. Palmitoyl = CCCCCCCCCCCCCCCC(=O)*

Assays:
Circular dichroism (CD) = assay type: physicochemical
Experimental: CD was done using a model J-715 Jasco Circular Dichroism Spectrometer. 1 wt % PA solutions were prepared in either a 150 mM NaCl, 3 mM KCl solution or a 150 mM NaCl, 3 mM KCl, and 5 mM CaCl2 solution, both at a pH of 7.2-7.4, as determined via pH paper. The solutions were then heated to 80° C. in a water bath for 1 hr, and then slowly cooled to room temperature over the course of 8 hr. The samples were measured through 0.01 mm quartz plates. Each trace represents the average of three scans. The mean residue ellipticity was corrected for purity of the lyophilized powder from peptide content analysis.

[1] = Solubility in physiologically relevant monovalent salt solution; assay type: physicochemical; conditions: monovalent salt solution composed of 150 mM NaCl and 3 mM KCl
Dynamic light scattering = assay type: physicochemical
[2] = Transmission electron microscopy (cryoTEM / conventional TEM) of PA nanostructures; assay type: physicochemical
Experimental: The nanostructure of each PA molecule under physiologically relevant conditions was investigated using electron microscopy. Samples for vitreous ice cryo-transmission electron microscopy (cryoTEM) were prepared from a 0.1-0.5 wt % PA solution dissolved in 150 mM NaCl, 3 mM KCl, or in a 150 mM NaCl, 3 mM KCl, and 5 mM CaCl2 solution, both at a pH of 7.2-7.4. The solutions were then heated to 80° C. in a water bath for 1 hr, and then slowly cooled to room temperature over the course of 8 hr. 10 μL of each solution was pipetted onto a plasma cleaned holey carbon TEM grid (Electron Microscopy Sciences), blotted and plunged into liquid ethane using a FEI Vitrobot Mark IV. Samples were kept at −180° C. and imaged using a JEOL 1230 TEM operating at 100 kV.
Samples for conventional TEM microscopy were prepared from 0.1 wt % PA solution dissolved in ultrapure water and adjusted to a pH of 7.2-7.4 by adding NaOH. The solutions were then heated to 80° C. in a water bath for 1 hr, and then slowly cooled to room temperature over the course of 8 hr, unless noted otherwise. 2 μL of a 0.1 wt % PA solution was pipetted onto a Carbon Formvar grid (Electron Microscopy Sciences) and allowed to dry. The samples were then negatively stained by pipetting 2 uL of a 2 wt % Uranyl acetate solution and allowed to dry. Each sample was imaged using a JEOL 1230 TEM operating at 100 kV. The average diameter of nanofibers was obtained via measuring 40-100 different fibers from solutions and grids prepared throughout multiple days.
The assembly of each PA molecule under physiologically relevant conditions was examined using cryogenic electron microscopy (cryoTEM), as described in Example 4. PAs were dissolved in isotonic salt solutions resembling extracellular fluid (150 mM NaCl, 3 mM KCl, pH 7.4). […] In order to compare molecular simulation diameters with those observed from TEM, molecular simulation values for the other four PA molecules were scaled by the same amount, 87%.

[3] = test system: P19 embryonal carcinoma cells differentiated into neurons; experiment: Neurite outgrowth of neurons cultured in peptide amphiphile gels; assay type: cell-based, murine; conditions: compared to gels of PA 1; for promotion of neurite outgrowth (in words): gels containing 0.2 wt % of the PA with 0.8 wt % PA 1
Experimental: P19 embryonal carcinoma cells were cultured in media composed of α-MEM (Gibco), 7.5% newborn calf serum (Lonza), 2.5% fetal bovine serum (Gibco), penicillin (100 units/ml) and streptomycin (100 ug/ml) (Invitrogen). Neuronal differentiation was induced by plating P19 cells in non-treated Petri dishes in media containing 5 uM retinoic acid (Sigma) for 4 days. Neurospheres were collected from the Petri dish and allowed to settle in a centrifuge tube for 10 minutes. Media was removed, then trypsin/EDTA solution was added and the tube was gently agitated for 5 minutes. Cells were dissociated by triturating the neurospheres, then media was added to inactivate the trypsin. Cells were centrifuged and the pellet resuspended in media to a concentration of 25,000 cells/ul. Cells were mixed (1:4) with PA solution. The PA/cell solution was pipetted into coverslip-bottom culture dishes (MatTek) and covered with gelling solution (150 mM NaCl, 3 mM KCl, 25 mM CaCl2) for 1 minute to induce gelation, then rinsed with a 150 mM NaCl, 3 mM KCl solution, then media was added to the dish. Cells were cultured for 2 days.
In order to assay neurite outgrowth, gels were rinsed with PBS, then fixed in 4% paraformaldehyde for 30 minutes at room temperature. Gels were rinsed 3× with PBS followed by addition of 10% normal goat serum blocking solution (Invitrogen) with 0.1% Triton X-100 added. Gels were incubated overnight with primary antibody (rabbit anti-β-III-tubulin IgG, 1/2000, Covance) in blocking solution. Gels were rinsed 3× with PBS, then blocked for 30 minutes with blocking solution. Next, gels were incubated with secondary antibody (Alexa Fluor 488 goat anti-rabbit IgG, 1/100, Invitrogen) in blocking solution for 1 hour. After one PBS rinse, nuclei were stained with a 5 ug/ml solution of Hoecsht 34580 (Invitrogen) in PBS for 15 minutes, then rinsed 4 times. Gels were imaged on a Zeiss LSM 510 META laser scanning confocal microscope, individually acquiring z-stacks of randomly chosen cells with neurites. Two gels were imaged per condition for each experiment. Experiments were done in triplicate. For each condition, at least 50 neurons with neurites were imaged. Using the Simple Neurite Tracer plug-in for ImageJ software, neurites were traced and measured. A one-way ANOVA, followed by paired t-tests, were performed to determine significance between conditions. Researchers were blinded to the conditions during imaging and tracing.
Pluripotent murine P19 embryonal carcinoma cells were differentiated into neurons. These neurons were then homogeneously distributed into isotonic salt solutions composed of 0.8 wt % PA 1 mixed with 0.2 wt % 2-5 and gelled with 25 mM CaCl2 (FIG. 3a,b). Mixtures of 1 with 2-5 were used in biological experiments in order to form robust gel matrices capable of supporting cells in culture. After two days of culture, the cells were fixed and the neurites and nuclei were fluorescently labelled green and blue using β-III-tubulin immunostaining and Hoechst staining, respectively, then imaged by confocal microscopy (FIG. 14). Neurites were traced and measured, and average neurite lengths were calculated (FIG. 15).

[4] = Small-angle X-ray scattering (SAXS) of PA nanostructures; assay type: physicochemical; conditions: for Total SAXS Cross-section dimensions: diameter
Text: Small-angle X-ray scattering (SAXS) measurements were obtained using a Rigaku S-MAX 3000 High Brilliance SAXS System. Cu Ka radiation was generated by Osmic MicroMaxs, an integrated microfocus sealed tube generator (powered at 45 kV and 0.9 mA) with Osmict Confocal Max-Fluxs optics, 3 pinholes collimation. A 20×20 cm^2 2D position-sensitive wire detector (1024×1024 pixels) was positioned 150 cm behind the examined samples, resulting in a q-range of 0.07-2.8 nm^−1. The wave vector defined as, q=(4π/λ)sin(2θ/2), where 2y is the scattering angle and λ is wavelength of Cu Kα radiation (1.542 Å). A total of 10^6 or more counts were collected in order to obtain a high signal to noise ratio. Samples were measured for 3600 s, and then background subtracted from data collected using a capillary containing the isotonic salt solution. The 2D SAXS patterns were azimuthally averaged and the background subtracted using standard methods. Data analysis was based on fitting the scattering curve to an appropriate model by a least-squares method using software provided by NIST (NIST SANS analysis version 7.0 on IGOR) ^21 The table below lists the models used to fit the SAXS curves. The Total SAXS cross-sectional dimensions correspond to length and width for molecule 2, and diameter for 3-5.

[5] = Transmission electron microscopy (cryoTEM / conventional TEM) of PA nanostructures; assay type: physicochemical; conditions: 1 wt % solution drop-cast and dried onto a TEM grid
[6] = test system: P19 embryonal carcinoma cells differentiated into neurons; experiment: Neurite outgrowth of neurons cultured in peptide amphiphile gels; assay type: cell-based, murine; conditions: gels containing half the concentration (0.1 wt %) of the PA; compared to gels of PA 1
[7] = (Core) Shell Cylinder SAXS model

Structure (SMILES): CCCCCCCCCCCCCCCC(=O)N[C@H](C(=O)N[C@H](C(=O)N[C@@H](C)C(=O)N[C@@H](C)C(=O)N[C@@H](CCC(=O)O)C(=O)N[C@@H](CCC(=O)O)C(=O)N[C@@H](CCC(=O)O)C(=O)N[C@@H](CCC(=O)O)C(=O)NCC(=O)N[C@H](C(=O)N[C@@H](CCCCN)C(=O)N[C@H](C(=O)N[C@@H](C)C(=O)N[C@H](C(=O)O)C(C)C)C(C)C)[C@@H](C)CC)C(C)C)C(C)C [PA 5, CH3(CH2)14C(O)-VVAAEEEEGIKVAV-OH] (Palmitoyl-VVAAEEEEGIKVAV-OH)
- peptide secondary structure from CD spectrum (Circular dichroism (CD); 150 mM NaCl, 3 mM KCl with 5 mM CaCl2 added): presence of β-sheet structure
- peptide secondary structure from CD spectrum (Circular dichroism (CD); 1 wt % in 150 mM NaCl, 3 mM KCl): random coil peptide structure
- solubility [1]: soluble
- hydrodynamic radius of spherical micelles (Dynamic light scattering): 8.6 nm
- diameter of cylindrical structures ([2]; cryoTEM, isotonic salt solution with 5 mM CaCl2 added): 9.9±1.1 nm
- diameter of spherical micelles ([2]; cryoTEM, without CaCl2): 5.3±1.1 nm
- OBSERVED FIBER DIAMETER ([2]; from TEM): 108 ± 15 Å
- ASSEMBLED MORPHOLOGY ([2]; observed morphologies from TEM): Cylindrical fiber
- promotion of neurite outgrowth (in words) [3]: promoted neurite outgrowth
- promotion of neurite outgrowth (in words) ([3]; listed as SEQ ID NO. 7): promote neurite outgrowth
- increase in neurite outgrowth ([3]; gels of 0.8 wt % PA 1 mixed with 0.2 wt % of the PA, gelled with 25 mM CaCl2, 2 days culture): 88±13%
- Core Diameter [4, 7]: 1.2 nm
- Shell Thickness [4, 7]: 2.0 ± 0.6 nm
- Total SAXS Cross-section dimensions [4, 7]: 6.4 ± 1.8 nm
- Core Diameter ([4]; (Core) Shell Sphere SAXS model): 1.46 nm
- Shell Thickness ([4]; (Core) Shell Sphere SAXS model): 1.4 ± 0.6 nm
- Total SAXS Cross-section dimensions ([4]; (Core) Shell Sphere SAXS model): 5.9±1.2 nm
- Total SAXS Cross-section dimensions ([4]; (Core) Shell Sphere SAXS model, listed as 5): 5.9±1.2 nm
- average diameter of cylindrical nanofibers [5]: 10.8±1.5 nm
- increase in neurite length [6]: 57±14%
